# Test results from patent US20230174485A1, “LIPOXYGENASE INHIBITORS” (SRI International, priority 2020, published 2023).
# “And” between values parts separate entries of the source, which are not always exact repeats. Equal entries are not always repeated. Where two headings read alike, the source gives them in different places.
# What was measured:
# Assay type in all cases: biochemical
# [1] = molecular target: T1, recombinant 15-LOX enzyme (Homo sapiens, UniProt P16050); assay: 15-LOX fluorescent assay; settings: several values in one cell = repeat determinations
# T1 sequence (P16050 1-662): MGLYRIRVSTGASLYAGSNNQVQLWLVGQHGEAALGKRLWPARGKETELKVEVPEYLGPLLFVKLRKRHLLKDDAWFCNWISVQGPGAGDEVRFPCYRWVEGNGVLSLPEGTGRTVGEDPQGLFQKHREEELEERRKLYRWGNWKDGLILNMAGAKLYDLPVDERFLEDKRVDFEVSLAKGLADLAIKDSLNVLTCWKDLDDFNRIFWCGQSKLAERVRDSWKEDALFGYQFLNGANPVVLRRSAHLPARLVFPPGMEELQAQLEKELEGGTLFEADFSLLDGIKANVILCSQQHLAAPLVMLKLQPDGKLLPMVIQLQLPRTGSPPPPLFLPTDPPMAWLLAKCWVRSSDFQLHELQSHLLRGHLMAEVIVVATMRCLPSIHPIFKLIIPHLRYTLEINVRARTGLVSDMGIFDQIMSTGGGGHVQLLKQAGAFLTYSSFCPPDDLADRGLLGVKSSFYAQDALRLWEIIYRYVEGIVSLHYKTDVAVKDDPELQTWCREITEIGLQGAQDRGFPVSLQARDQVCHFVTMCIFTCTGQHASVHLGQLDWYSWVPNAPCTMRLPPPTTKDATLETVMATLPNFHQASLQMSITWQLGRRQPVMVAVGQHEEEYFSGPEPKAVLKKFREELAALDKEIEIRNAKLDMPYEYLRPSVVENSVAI
# Description: (§1) 12-LOX/15-LOX Fluorescent Assay
# (§2) The enzyme assay (100 ul) contained 50 mM Tris, pH 7.5, 0.05% Tween-20, 20 μM AA/LA, 1 μM DHR123, and 100 nM recombinant 12-LOX enzyme/50 nM recombinant 15-LOX enzyme. Inhibitors (dissolved in DMSO) were plated at 1 μL into 96-well assay microplates followed by a 40 μL addition of a solution containing 12-LOX/15-LOX enzyme. Enzyme was pre-incubated with compounds for 15 mins. The assay was initiated by the addition of a 40 μL substrate solution containing AA/LA, and 20 μL addition of a solution containing DHR123. Enzymatic reaction proceeded for 30 min with kinetic reading at 500 nm excitation & 536 nm emission in SpectraMax Paradigm (MolecularDevice). Percent inhibition was calculated for each compound dose for IC50 curve fitting using 4 Parameter Logistic Model or Sigmoidal Dose-Response Model.
# [2] = molecular target: T2, recombinant 12-LOX enzyme (Homo sapiens, UniProt P18054); assay: 12-LOX fluorescent assay; settings: several values in one cell = repeat determinations
# T2 sequence (P18054 1-663): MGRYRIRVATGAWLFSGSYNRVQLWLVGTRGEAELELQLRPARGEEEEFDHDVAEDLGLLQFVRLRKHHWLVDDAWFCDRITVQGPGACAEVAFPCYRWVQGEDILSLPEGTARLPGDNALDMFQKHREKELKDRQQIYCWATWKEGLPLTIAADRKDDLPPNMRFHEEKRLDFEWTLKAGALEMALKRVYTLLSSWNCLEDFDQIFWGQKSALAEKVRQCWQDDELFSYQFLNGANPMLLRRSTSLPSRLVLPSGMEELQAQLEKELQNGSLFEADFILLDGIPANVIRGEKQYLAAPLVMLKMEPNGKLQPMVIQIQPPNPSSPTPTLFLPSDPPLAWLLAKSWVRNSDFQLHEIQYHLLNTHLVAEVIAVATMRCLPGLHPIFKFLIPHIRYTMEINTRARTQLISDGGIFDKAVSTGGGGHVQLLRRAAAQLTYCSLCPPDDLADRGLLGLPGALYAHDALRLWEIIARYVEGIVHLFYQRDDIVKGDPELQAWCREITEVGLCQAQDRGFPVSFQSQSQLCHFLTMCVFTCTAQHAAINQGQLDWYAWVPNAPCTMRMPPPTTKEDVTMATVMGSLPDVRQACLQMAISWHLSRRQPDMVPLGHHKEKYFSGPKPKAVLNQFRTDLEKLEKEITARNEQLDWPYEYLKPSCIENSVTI
# Description: as §1, §2
# recombinant 5-LOX = molecular target: T3, recombinant 5-LOX (Homo sapiens, UniProt P09917); assay: 5-LOX fluorescent assay; settings: several values in one cell = repeat determinations; read-out: IC50 (μM) values for in vitro lipoxygenase inhibition, 5-LOX
# T3 sequence (P09917 1-674): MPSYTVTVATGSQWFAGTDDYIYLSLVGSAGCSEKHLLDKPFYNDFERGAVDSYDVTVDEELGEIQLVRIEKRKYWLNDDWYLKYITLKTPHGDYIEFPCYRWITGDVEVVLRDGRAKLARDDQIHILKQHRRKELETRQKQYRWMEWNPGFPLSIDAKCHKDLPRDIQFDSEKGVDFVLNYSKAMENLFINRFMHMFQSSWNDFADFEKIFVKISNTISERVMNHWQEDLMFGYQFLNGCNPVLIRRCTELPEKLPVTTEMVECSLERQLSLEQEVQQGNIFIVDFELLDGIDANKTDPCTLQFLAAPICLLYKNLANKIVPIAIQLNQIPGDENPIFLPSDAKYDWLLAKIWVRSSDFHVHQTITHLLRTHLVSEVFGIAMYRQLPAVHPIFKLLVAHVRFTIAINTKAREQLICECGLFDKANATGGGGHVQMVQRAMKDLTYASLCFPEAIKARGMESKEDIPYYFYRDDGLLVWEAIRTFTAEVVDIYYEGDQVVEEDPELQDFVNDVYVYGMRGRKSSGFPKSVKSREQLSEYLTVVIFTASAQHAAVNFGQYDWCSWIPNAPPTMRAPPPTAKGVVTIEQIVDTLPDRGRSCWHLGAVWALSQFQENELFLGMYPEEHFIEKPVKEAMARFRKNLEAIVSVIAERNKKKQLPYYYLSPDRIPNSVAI
# Description: 5-LOX FI assay Fluorescent Assay
# The enzyme assay (100 μL) contained 50 mM Tris, pH 7.5, 0.1 mM EDTA, 0.3 mM CaCl2, 20 μM AA, 100 μM ATP, 1 μM DHR123, and recombinant 5-LOX cell lysate (0.5 μL/100 μL). Inhibitors (dissolved in DMSO) were plated at 1 μL into 96-well assay microplates followed by a 40 μL addition of a solution containing 5-LOX enzyme. Enzyme was pre-incubated with compounds for 15 mins. The assay was initiated by the addition of a 40 μL substrate solution containing AA and ATP, and 20 μL addition of a solution containing DHR123. Enzymatic reaction proceeded for 30 min with kinetic reading at 500 nm excitation & 536 nm emission in SpectraMax Paradigm (MolecularDevice). Percent inhibition was calculated for each compound dose for IC50 curve fitting using 4 Parameter Logistic Model or Sigmoidal Dose-Response Model.
# [3] = read-out: IC50 (μM) values for in vitro lipoxygenase inhibition, 15-LOX
# [4] = read-out: IC50 (μM) values for in vitro lipoxygenase inhibition, 12-LOX
# [5] = IC50 (μM) values for in vitro lipoxygenase inhibition, 15-LOX
# [6] = IC50 (μM) values for in vitro lipoxygenase inhibition, 12-LOX
SMILES,"IC50 [1, 3]","IC50 [2, 4]",IC50 (recombinant 5-LOX),"IC50 [1, 5]","IC50 [2, 6]"
"CC1(C)CN(CCn2cncn2)c2cc3[nH]c4ccccc4c3cc21 [SS20308-0209-01, 1-(2-(1H-1,2,4-triazol-1-yl)ethyl)-3,3-dimethyl-1,2,3,9-tetrahydropyrrolo[2,3-b] carbazole]",1.12 µM,0.03 µM,0.92 µM,,
"c1ccc2c(c1)[nH]c1cc3c(ccn3CCn3cncn3)cc12 [SS20308-0062-01, 1-(2-(1H-1,2,4-triazol-1-yl)ethyl)-1,9-dihydropyrrolo[2,3-b]carbazole]",0.94 µM and 1.68 µM,0.19 µM and 0.24 µM,0.53 µM and 0.42 µM,,
"c1ccc2c(c1)CCc1ccc(NCCn3cncn3)cc1N2 [SS20308-0224-01, N-(2-(1H-1,2,4-triazol-1-yl)ethyl)-10,11-dihydro-5H-dibenzo[b,f]azepin-3-amine]",1.12 µM,0.11 µM,0.22 µM,,
"COc1c2[nH]c(-c3ccccc3)nc2c(F)c2c1[nH]c1ccccc12 [SS20308-0137-01, 10-fluoro-4-methoxy-2-phenyl-3,5-dihydroimidazo[4,5-b]carbazole]",0.5 µM,0.53 µM,0.72 µM,,
"c1ccc2c(c1)[nH]c1cc3c(cc12)CCN3CCn1cncn1 [SS20308-0180-01, 1-(2-(1H-1,2,4-triazol-1-yl)ethyl)-1,2,3,9-tetrahydropyrrolo[2,3-b]carbazole]",0.39 µM and 0.51 µM,0.03 µM and 0.08 µM,0.44 µM and 0.81 µM,,
"Fc1ccc2[nH]c3c(OCCn4cncn4)cc(Oc4ccccc4)cc3c2c1 [SS20308-0084-01, 1-(2-(1H-1,2,4-triazol-1-yl)ethoxy)-6-fluoro-3-phenoxy-9H-carbazole]",,5.42 µM,6.79 µM,3.36 µM,
"CN(C)CCc1cc(Nc2cccc(Cl)c2)cc2c1[nH]c1ccccc12 [SS20308-0258-01, N-(3-chlorophenyl)-1-(2-(dimethylamino)ethyl)-9H-carbazol-3-amine]",0.09 µM and 0.55 µM,0.16 µM,0.06 µM and 0.08 µM,,
"c1ccc2c(c1)CCc1cc(NCCn3cncn3)ccc1N2 [SS20308-0276-01, N-(2-(1H-1,2,4-triazol-1-yl)ethyl)-10,11-dihydro-5H-dibenzo[b,f]azepin-2-amine]",0.28 µM and 0.1 µM,0.03 µM and 0.02 µM,0.13 µM and 0.06 µM,,
"Clc1cc2c(cc1NCCn1cncn1)Nc1ccccc1CC2 [SS20308-0251-01, N-(2-(1H-1,2,4-triazol-1-yl)ethyl)-2-chloro-10,11-dihydro-5H-dibenzo[b,f]azepin-3-amine]",0.75 µM and 0.73 µM,0.05 µM and 0.22 µM,0.45 µM and 0.56 µM,,
"CN(C)C/C=C\c1c2[nH]c3ccccc3c2cc2[nH]c3ccccc3c12 [SS20308-0126-01, (Z)-3-(5,11-dihydroindolo[3,2-b]carbazol-6-yl)-N,N-dimethylprop-2-en-1-amine]",,,0.04 µM,0.04 µM,0.04 µM
"Cc1c2[nH]c3ccccc3c2cc2[nH]c3ccccc3c12 [SS20308-0112-01, 6-methyl-5,11-dihydroindolo[3,2-b]carbazole]",> 100 µM,> 100 µM,> 100 µM,,
"c1ccc2c(c1)[nH]c1c(OCCn3cncn3)c3c(cc12)[nH]c1ccccc13 [SS20308-0059-01, 6-(2-(1H-1,2,4-triazol-1-yl)ethoxy)-5,11-dihydroindolo[3,2-b]carbazole]",,,0.04 µM and 0.03 µM,0.03 µM and 0.02 µM,0.03 µM and 0.02 µM
"c1ccc(NC2CCc3[nH]c4ccccc4c3C2)cc1 (stereo not drawn) [SS20308-0158-01, N-phenyl-2,3,4,9-tetrahydro-1H-carbazol-3-amine]",1.55 µM,3.16 µM,3.75 µM,,
"CN(C)CCOc1c2c(cc3[nH]c4ccccc4c13)[nH]c1ccccc12 [SS20308-0063-01, 2-(5,7-dihydroindolo[2,3-b]carbazol-12-yloxy)-N,N-dimethylethanamine]",,0.46 µM and 0.56 µM,0.53 µM and 0.69 µM,0.29 µM and 0.9 µM,
"Fc1ccc2[nH]c3c(NCCn4cncn4)c(-c4ccccc4)ccc3c2c1 [SS20308-0154-01, N-(2-(1H-1,2,4-triazol-1-yl)ethyl)-6-fluoro-2-phenyl-9H-carbazol-1-amine]",0.44 µM,0.35 µM,1.06 µM,,
"CN(C)CCOc1c2[nH]c(-c3ccccc3)nc2c(F)c2c1[nH]c1ccccc12 [SS20308-0121-01, 2-(10-fluoro-2-phenyl-3,5-dihydroimidazo[4,5-b]carbazol-4-yloxy)-N,N-dimethylethanamine]",0.86 µM,1.16 µM,0.53 µM,,
"Fc1ccc2[nH]c3cc4c(cc3c2c1)CCN4CCn1cncn1 [SS20308-0208-01, 1-(2-(1H-1,2,4-triazol-1-yl)ethyl)-6-fluoro-1,2,3,9-tetrahydropyrrolo[2,3-b]carbazole]",0.18 µM,0.01 µM,0.2 µM,,
"Fc1cc2[nH]c3ccccc3c2cc1NCC1(Cn2cncn2)COC1 [SS20308-0304-01, N-((3-((1H-1,2,4-triazol-1-yl)methyl)oxetan-3-yl)methyl)-2-fluoro-9H-carbazol-3-amine]",0.4 µM,0.09 µM,0.2 µM,,
"CN(CCn1cncn1)c1cc2c(cc1-c1ccccc1)[nH]c1ccc(F)cc12 [SS20308-0182-01, N-(2-(1H-1,2,4-triazol-1-yl)ethyl)-6-fluoro-N-methyl-2-phenyl-9H-carbazol-3-amine]",,0.31 µM,0.77 µM,1.4 µM,
